Measured values published in ChEMBL document CHEMBL4765279, “Discovery of a novel series of imidazo[1',2':1,6]pyrido[2,3-d]pyrimidin derivatives as potent cyclin-dependent kinase 4/6 inhibitors” (Eur J Med Chem, 2020).
pIC50: −log10 of the molar value. Activity calls are given as the source filed them. The rule behind the calls is not given here.

Assays:
MDA-MB-468 = assay: Antiproliferative activity against human MDA-MB-468 cells assessed as cell growth inhibition measured after 4 to 6 days by celltiter-glo luminescent cell viability assay; type: functional, cell-based
COLO 205 [1] = assay: Antitumor activity against human COLO 205 cells xenografted in BALB/c mouse assessed as tumor growth at 3 mg/kg, po q3d for 11 days measured post last dose relative to control; type: functional; conditions: time 11 day
[2] = AUC (0 to t) in Sprague-Dawley rat at 6 mg/kg, po by LC-MS/MS analysis; type: ADME, organism-based; parameters: dose 6 mg/kg; conditions: in vivo
COLO 205 [3] = assay: Antitumor activity against human COLO 205 cells xenografted in BALB/c mouse assessed as tumor growth inhibition at 3 mg/kg, po qd for 11 days relative to control; type: functional; conditions: COLO 205, po, time 11 day, read-out: TGI
Cytochrome P450 2D6 = Cytochrome P450 2D6 (Homo sapiens, UniProt P10635); assay: Time-dependent inhibition of CYP2D6 in human liver microsomes at 10 uM in presence of NADPH by LC-MS/MS analysis; type: ADME
Cytochrome P450 1A2 = target: T1, Cytochrome P450 1A2 (Homo sapiens, UniProt P05177); assay: Time-dependent inhibition of CYP1A2 in human liver microsomes at 10 uM in presence of NADPH by LC-MS/MS analysis; type: ADME
T1 sequence (P05177 whole entry): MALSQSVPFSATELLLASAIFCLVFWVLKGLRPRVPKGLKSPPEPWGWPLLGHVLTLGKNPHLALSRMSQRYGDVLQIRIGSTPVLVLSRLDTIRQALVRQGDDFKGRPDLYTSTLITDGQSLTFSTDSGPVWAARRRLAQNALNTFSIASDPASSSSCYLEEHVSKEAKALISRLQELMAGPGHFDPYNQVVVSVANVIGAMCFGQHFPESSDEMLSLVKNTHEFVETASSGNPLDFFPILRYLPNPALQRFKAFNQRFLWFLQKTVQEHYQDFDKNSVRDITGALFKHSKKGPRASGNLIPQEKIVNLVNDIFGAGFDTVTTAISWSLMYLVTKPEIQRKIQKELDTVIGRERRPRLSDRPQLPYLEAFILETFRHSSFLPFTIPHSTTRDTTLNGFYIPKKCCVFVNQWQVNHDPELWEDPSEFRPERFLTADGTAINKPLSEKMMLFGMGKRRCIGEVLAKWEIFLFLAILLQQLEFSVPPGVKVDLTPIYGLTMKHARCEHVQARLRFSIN

Cytochrome P450 3A4 = Cytochrome P450 3A4 (Homo sapiens, UniProt P08684); assay: Time-dependent inhibition of CYP3A4 in human liver microsomes at 10 uM in presence of NADPH by LC-MS/MS analysis; type: ADME
CYP2C19 = CYP2C19 (Homo sapiens, UniProt P33261); assay: Inhibition of CYP2C19 in human liver microsomes at 10 uM measured after 20 mins in presence of NADPH by LC-MS/MS analysis relative to control; type: ADME
[4] = AUC (0 to t) in Sprague-Dawley rat at 3 mg/kg, iv by LC-MS/MS analysis; type: ADME, organism-based; parameters: dose 3 mg/kg; conditions: in vivo
COLO 205 [5] = assay: Antitumor activity against human COLO 205 cells xenografted in BALB/c mouse assessed as reduction in tumor volume at 30 mg/kg, po q3d for 11 days measured post last dose by caliper method; type: functional, organism-based; conditions: time 11.0 day
CYP1A2 = target: T2, CYP1A2 (Homo sapiens, UniProt P05177); assay: Inhibition of CYP1A2 in human liver microsomes at 10 uM measured after 20 mins in presence of NADPH by LC-MS/MS analysis relative to control; type: ADME
T2 sequence (P05177 whole entry): T1 sequence (P05177 whole entry)

[6] = Oral bioavailability in Sprague-Dawley rat at 6 mg/kg by LC-MS/MS analysis; type: ADME, organism-based; conditions: in vivo
[7] = Toxicity in human COLO 205 cells xenografted BALB/c mouse assessed as body weight loss at 30 mg/kg, po q3d for 11 days relative to control; type: organism-based; conditions: in vivo, time 11 day
COLO 205 [8] = assay: Antitumor activity against human COLO 205 cells xenografted in BALB/c mouse assessed as reduction in tumor volume at 3 mg/kg, po qd for 11 days measured post last dose by caliper method; type: functional, organism-based; conditions: time 11.0 day
[9] = AUC (0 to t) in BALB/c mouse at 3 mg/kg, iv by LC-MS/MS analysis; type: ADME, organism-based; parameters: dose 3 mg/kg; conditions: in vivo
CYP2D6 = CYP2D6 (Homo sapiens, UniProt P10635); assay: Inhibition of CYP2D6 in human liver microsomes at 10 uM measured after 20 mins in presence of NADPH by LC-MS/MS analysis relative to control; type: ADME
U-87 MG [10] = assay: Antitumor activity against human U-87 MG cells xenografted in BALB/c mouse assessed as tumor growth at 10 mg/kg, po qd for 16 days relative to control; type: functional, U-87MG ATCC; conditions: time 16 day
[11] = Intrinsic clearance in human liver microsomes at 1 uM preincubated for 10 mins followed by NADPH addition and measured after 1 hr by LC-MS/MS analysis; type: ADME, Microsome; conditions: time 70 min, read-out: CLH
[12] = Half life in Sprague-Dawley rat at 6 mg/kg, po by LC-MS/MS analysis; type: ADME, organism-based; conditions: in vivo
CYP3A4 = CYP3A4 (Homo sapiens, UniProt P08684); assay: Inhibition of CYP3A4 in human liver microsomes at 10 uM measured after 20 mins in presence of NADPH by LC-MS/MS analysis relative to control; type: ADME
[13] = Half life in Sprague-Dawley rat at 3 mg/kg, iv by LC-MS/MS analysis; type: ADME, organism-based; conditions: in vivo
Cytochrome P450 2C19 = Cytochrome P450 2C19 (Homo sapiens, UniProt P33261); assay: Time-dependent inhibition of CYP2C19 in human liver microsomes at 10 uM in presence of NADPH by LC-MS/MS analysis; type: ADME
[14] = Half life in BALB/c mouse at 10 mg/kg, po by LC-MS/MS analysis; type: ADME, organism-based; conditions: in vivo
CDK4/Cyclin D3 = CDK4/Cyclin D3 (Homo sapiens, UniProt P11802); assay: Inhibition of recombinant human full-length N-terminal GST-fused CDK4 (1 to 303 residues)/GST-tagged CyclinD3 (1 to 292 residues) expressed in baculovirus expression system using ULight-elF4E-binding protein 1 peptide as substrate measured after 30 mins by LANCE assay
U-87 MG [15] = assay: Antitumor activity against human U-87 MG cells xenografted in BALB/c mouse assessed as tumor growth inhibition at 10 mg/kg, po qd for 16 days relative to control; type: functional, U-87MG ATCC; conditions: 384 h, time 16 day, read-out: TGI
U-87 MG [16] = assay: Antiproliferative activity against human U-87 MG cells assessed as cell growth inhibition measured after 4 to 6 days by celltiter-glo luminescent cell viability assay; type: functional, cell-based, U-87MG ATCC
COLO 205 [17] = assay: Antitumor activity against human COLO 205 cells xenografted in BALB/c mouse assessed as tumor growth at 3 mg/kg, po qd for 11 days measured post last dose relative to control; type: functional; conditions: time 11 day
[18] = Volume of distribution at steady state in Sprague-Dawley rat at 3 mg/kg, iv by LC-MS/MS analysis; type: ADME, organism-based; conditions: in vivo, read-out: Vdss
[19] = Half life in BALB/c mouse at 3 mg/kg, iv by LC-MS/MS analysis; type: ADME, organism-based; conditions: in vivo
[20] = Cmax in BALB/c mouse at 10 mg/kg, po by LC-MS/MS analysis; type: ADME, organism-based; parameters: route oral, dose 10 mg/kg; conditions: in vivo

Chain of Cytochrome P450 3A4 (P08684 whole entry): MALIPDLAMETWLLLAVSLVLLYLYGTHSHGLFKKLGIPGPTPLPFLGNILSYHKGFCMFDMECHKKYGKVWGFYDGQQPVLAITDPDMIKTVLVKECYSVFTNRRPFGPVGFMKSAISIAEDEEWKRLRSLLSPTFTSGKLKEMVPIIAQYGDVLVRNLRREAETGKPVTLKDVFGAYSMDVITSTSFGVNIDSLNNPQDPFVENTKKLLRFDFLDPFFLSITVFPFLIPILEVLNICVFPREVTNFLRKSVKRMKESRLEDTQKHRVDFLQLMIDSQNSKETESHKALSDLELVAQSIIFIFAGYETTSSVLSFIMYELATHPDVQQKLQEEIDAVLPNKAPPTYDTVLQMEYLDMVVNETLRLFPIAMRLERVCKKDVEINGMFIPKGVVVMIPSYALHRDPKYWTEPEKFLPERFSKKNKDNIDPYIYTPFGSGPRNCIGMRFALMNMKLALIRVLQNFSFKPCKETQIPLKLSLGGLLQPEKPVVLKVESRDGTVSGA
Chain of CYP3A4 (P08684 whole entry): as above
Chain of CYP2D6 (P10635 whole entry): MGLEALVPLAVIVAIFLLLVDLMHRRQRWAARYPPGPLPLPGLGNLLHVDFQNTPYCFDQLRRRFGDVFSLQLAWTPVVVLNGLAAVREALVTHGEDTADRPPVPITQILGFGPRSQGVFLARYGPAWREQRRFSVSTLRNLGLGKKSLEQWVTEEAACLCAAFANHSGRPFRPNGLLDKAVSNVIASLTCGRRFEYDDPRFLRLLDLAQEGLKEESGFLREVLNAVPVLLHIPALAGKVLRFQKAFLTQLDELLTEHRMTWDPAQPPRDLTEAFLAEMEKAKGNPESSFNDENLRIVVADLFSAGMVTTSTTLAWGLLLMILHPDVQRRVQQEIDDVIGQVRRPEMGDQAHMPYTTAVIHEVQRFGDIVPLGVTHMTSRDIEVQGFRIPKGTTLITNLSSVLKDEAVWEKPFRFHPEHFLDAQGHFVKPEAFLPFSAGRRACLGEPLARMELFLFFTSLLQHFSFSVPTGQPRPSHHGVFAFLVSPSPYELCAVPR
Chain of Cytochrome P450 2D6 (P10635 whole entry): as above
Chain of CDK4/Cyclin D3 (P11802 whole entry, the tested form may be a part): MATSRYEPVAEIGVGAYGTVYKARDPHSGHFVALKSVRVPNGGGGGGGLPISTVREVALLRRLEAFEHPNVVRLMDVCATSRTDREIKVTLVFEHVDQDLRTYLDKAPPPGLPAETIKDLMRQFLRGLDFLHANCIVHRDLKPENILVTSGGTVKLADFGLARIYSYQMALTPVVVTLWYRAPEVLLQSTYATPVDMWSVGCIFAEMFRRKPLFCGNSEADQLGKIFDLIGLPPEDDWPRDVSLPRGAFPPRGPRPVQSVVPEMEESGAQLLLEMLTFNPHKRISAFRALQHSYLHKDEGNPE
Chain of CDK4/Cyclin D3 (P30281 whole entry, further chain, the tested form may be a part): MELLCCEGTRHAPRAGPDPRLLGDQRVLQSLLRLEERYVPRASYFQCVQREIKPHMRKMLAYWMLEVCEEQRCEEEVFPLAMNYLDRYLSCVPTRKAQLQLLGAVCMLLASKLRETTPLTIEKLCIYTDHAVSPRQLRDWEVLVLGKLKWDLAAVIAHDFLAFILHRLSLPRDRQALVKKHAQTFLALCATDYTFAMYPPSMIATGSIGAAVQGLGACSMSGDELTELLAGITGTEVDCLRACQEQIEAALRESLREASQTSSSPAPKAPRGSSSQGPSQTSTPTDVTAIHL
Chain of CYP2C19 (P33261 whole entry): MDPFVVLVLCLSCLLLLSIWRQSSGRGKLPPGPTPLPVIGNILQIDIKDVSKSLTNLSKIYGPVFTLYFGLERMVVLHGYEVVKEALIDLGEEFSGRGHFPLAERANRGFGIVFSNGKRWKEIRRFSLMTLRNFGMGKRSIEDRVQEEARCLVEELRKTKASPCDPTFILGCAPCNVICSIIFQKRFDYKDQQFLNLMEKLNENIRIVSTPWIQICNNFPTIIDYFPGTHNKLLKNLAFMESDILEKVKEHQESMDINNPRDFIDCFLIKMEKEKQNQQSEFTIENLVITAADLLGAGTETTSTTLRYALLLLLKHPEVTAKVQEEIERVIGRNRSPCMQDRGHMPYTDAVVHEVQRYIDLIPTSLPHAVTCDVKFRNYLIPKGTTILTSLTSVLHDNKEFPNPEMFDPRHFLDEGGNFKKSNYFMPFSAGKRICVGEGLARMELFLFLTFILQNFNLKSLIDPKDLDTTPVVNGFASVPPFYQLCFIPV
Chain of Cytochrome P450 2C19 (P33261 whole entry): as above

CC(=O)c1c(C)c2cnc(Nc3ccc(N4CCNCC4)cc3)nc2n2cc(C(C)C)nc12
pIC50 (MDA-MB-468): 6.06
T/C (COLO 205 [1]): 52%
AUC(0-t) [2]: 1120 ng·h/mL
inhibition in vivo at 3 mg/kg (COLO 205 [3]): 63%
TDI (Cytochrome P450 2D6): Not Active
TDI (Cytochrome P450 1A2): Not Active
TDI (Cytochrome P450 3A4): Not Active
inhibition at […], 10 µM (CYP2C19): 21%
AUCt [4]: 861 ng·h/mL
Activity (COLO 205 [5]): Active
inhibition at […], 10 µM (CYP1A2): 17%
bioavailability [6]: 65.2%
Activity [7]: < 20%
Activity (COLO 205 [8]): Active
AUCt [9]: 472 ng·h/mL
inhibition at […], 10 µM (CYP2D6): 14%
T/C (U-87 MG [10]): 53%
microsomal CLint at 1 µM [11]: 6 µL/min/mg
half-life [12]: 298 min
inhibition at […], 10 µM (CYP3A4): 8%
half-life [13]: 195 min
TDI (Cytochrome P450 2C19): Not Active
half-life [14]: 245 min
pIC50 (CDK4/Cyclin D3): 9.10
inhibition in vivo at 10 mg/kg (U-87 MG [15]): 54%
pIC50 (U-87 MG [16]): 7.07
T/C (COLO 205 [17]): 33%
Vd [18]: 35.2 L/kg
half-life [19]: 370 min
Cmax [20]: 90 ng/mL
